# Earlier results, collected in patent publication US8466103B2, “Exendin polypeptide linked to biotin, method for the preparation thereof and pharmaceutical composition comprising the same” (B&L Delipharm, Corp., priority 2008, dated 2013).
# Molecular target: Na-dependent multivitamin transport system
# Conditions: small intestines; read-out: Affinity constant of the transport system for biotin; cited from earlier work
smiles,measurement,value
O=C(O)CCCC[C@@H]1SC[C@@H]2NC(=O)N[C@@H]21 [biotin],Kd,~2.6 nM
